Measurements as given in patent US10759781B2, “Substituted guanidine derivatives” (UBE INDUSTRIES, LTD., priority 2015, dated 2020).

Columns and labels:
Human VAP-1 enzyme = target: T1, Human VAP-1 enzyme (Homo sapiens, UniProt Q16853); test: Human VAP-1 enzyme inhibition test; type: biochemical; conditions: 1 h; compound 30 nM; 14C-benzylamine 100 μM; read-out: inhibition ratio (human VAP-1 enzyme)
T1 construct: purchased R&D Systems, Inc
T1 sequence (Q16853 1-763): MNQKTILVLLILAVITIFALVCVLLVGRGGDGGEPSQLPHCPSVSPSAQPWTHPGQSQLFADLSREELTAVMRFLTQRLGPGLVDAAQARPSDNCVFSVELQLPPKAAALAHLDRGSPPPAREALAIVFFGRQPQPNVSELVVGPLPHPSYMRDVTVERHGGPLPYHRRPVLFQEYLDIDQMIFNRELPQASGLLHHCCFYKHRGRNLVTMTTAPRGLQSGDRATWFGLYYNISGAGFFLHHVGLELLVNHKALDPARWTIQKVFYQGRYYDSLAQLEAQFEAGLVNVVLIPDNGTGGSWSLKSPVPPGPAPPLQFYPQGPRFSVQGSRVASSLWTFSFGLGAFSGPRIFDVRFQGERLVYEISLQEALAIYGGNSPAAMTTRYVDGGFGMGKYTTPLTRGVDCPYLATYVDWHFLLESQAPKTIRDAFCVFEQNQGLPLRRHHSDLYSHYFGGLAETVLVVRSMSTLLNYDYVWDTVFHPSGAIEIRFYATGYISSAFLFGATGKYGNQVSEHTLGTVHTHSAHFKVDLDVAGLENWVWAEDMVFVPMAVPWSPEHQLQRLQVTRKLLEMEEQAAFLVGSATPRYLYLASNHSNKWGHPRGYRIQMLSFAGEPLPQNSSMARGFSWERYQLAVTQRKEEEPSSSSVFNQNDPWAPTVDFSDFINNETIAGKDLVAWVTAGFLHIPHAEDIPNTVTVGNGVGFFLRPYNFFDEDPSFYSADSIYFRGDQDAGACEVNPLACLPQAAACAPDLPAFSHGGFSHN
Summary of the method: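 Activity measured as radioactive oxidation product of 14C-benzylamine (100 μM final), extracted with toluene/ethyl acetate after citric acid stop and scintillation-counted. Enzyme (recombinant human VAP-1) first exposed to compound 20 min at room temperature, reaction then 1 h at 37 °C. Percent inhibition versus DMSO control.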

Rat Plasma VAP-1 = target: T2, Rat Plasma VAP-1 (Rattus norvegicus, UniProt O08590); test: (Ex vivo) rat plasma VAP-1 inhibition test after oral administration of the compound; type: in vivo; conditions: 3 hours after oral administration, SD male rats, read-out: inhibition ratio (plasma VAP-1, ex vivo)
T2 construct: from tissue; host or cells: plasma of SD male rats (7-12 weeks old) after oral dosing
T2 sequence (O08590 28-763 limits assumed): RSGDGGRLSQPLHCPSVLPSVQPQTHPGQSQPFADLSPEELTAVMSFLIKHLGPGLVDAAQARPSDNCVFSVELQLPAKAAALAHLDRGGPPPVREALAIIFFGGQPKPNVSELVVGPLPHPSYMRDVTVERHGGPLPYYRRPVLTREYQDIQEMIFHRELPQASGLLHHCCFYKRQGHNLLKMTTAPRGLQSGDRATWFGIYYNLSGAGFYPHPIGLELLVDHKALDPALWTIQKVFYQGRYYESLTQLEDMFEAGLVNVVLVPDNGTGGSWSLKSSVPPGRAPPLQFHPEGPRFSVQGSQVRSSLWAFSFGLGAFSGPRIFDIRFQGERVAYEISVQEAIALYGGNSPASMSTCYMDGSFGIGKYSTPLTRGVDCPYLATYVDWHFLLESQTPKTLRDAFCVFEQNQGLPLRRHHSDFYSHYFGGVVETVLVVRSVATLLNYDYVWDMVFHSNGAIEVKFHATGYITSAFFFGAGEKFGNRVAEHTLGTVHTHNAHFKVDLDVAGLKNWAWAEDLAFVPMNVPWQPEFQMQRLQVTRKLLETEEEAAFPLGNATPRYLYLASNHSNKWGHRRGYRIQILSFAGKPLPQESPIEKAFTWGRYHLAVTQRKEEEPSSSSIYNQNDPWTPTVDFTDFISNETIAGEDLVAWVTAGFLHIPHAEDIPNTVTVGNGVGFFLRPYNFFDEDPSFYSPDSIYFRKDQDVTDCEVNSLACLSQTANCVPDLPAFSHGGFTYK
Summary of the method: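 Male SD rats, 7–12 weeks, non-fasted, dosed orally at 0.3–10 mg/kg; jugular blood taken predose and 3, 8 and 24 h after dosing. Plasma incubated with 2.5 μM 14C-benzylamine for 3 h at 37 °C; extracted product counted by scintillation. Inhibition expressed relative to each animal's predose plasma activity.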

[1] = test system: Human normal glomerular microvascular endothelial cells; type: cell-based; conditions: 2 days, 100 nM
Protocol: The Cytotoxicity Inhibition Test in Human Normal Glomerular Microvascular Endothelial Cells
(§1) Human normal glomerular microvascular endothelial cells were plated at 6000 cells/well in a collagen-coated 96-well culture plate. After one day of culture, the medium at each well was completely removed by aspiration and replaced with 50 μL of the compound solution diluted with the basal medium. The basal medium containing 0.1% DMSO was added to control wells. Following, the plate was incubated in CO2 incubator for 30 minutes. Fifty microliter of 2 mM methylamine diluted with the basal medium was added (final concentration 1 mM) to each negative control well (0% inhibition) as well as the compound-containing well, and 50 μL of the basal medium was added to each positive control well (100% inhibition). The plate was incubated in CO2 incubator for 2 days. Ten microliter of CCK-8 was added to each well and the mixtures were incubated in a plate incubator at 37° C. for approximately 2 hours after stirring with a plate shaker. The absorbance of the mixtures at 450 nm was measured with a multiplate reader. The cytotoxicity inhibition ratio of the compound was calculated from the following equation. Inhibition ratio={[Average absorbance of the compound-containing wells]−[Average absorbance of negative control wells]}/{[Average absorbance of positive control wells]−[Average absorbance of negative control wells]}×100

[2] = test system: Human normal hepatic sinusoid-like microvascular endothelial cells; type: cell-based; conditions: 2 days, 300 nM
Protocol: The Cytotoxicity Inhibition Test in Human Normal Hepatic Sinusoid-Like Microvascular Endothelial Cells
as §1, with “hepatic sinusoid-like” for “glomerular”

in vivo = test: in vivo; parameters: species or system SD rats; conditions: SD, rat, po, 3 mg/kg
Protocol: Rat Pharmacokinetic (PK) Study (Concentration of Compound in Plasma after Oral Administration)
Seven to eight week old SD rats (weighing 180 to 250 g) were orally administered with a suspension of the compound in 0.5 W/V % methylcellulose 400 solution. Under anesthesia, the blood was collected from the jugular vein in EDTA tubes at 0.25, 0.5, 1, 2, 4, 6, 8 and 24 hours after the administration of the compound. The blood was centrifuged at 4° C. and 6000 g for 3 minutes to give plasma. Acetonitrile was added to the plasma, and the mixture was stirred with a shaker at 750 rpm for 3 minutes and was deproteinized by centrifugation at 3700 rpm for 2 minutes. Thus, the obtained sample was analyzed by LC/MS under the following conditions.
The concentration of the compound in the plasma at each blood sampling time was determined by an internal standard method, and AUC all (Area Under Curve) was calculated by a trapezoidal method.
The following LC and MS systems were used for measurement.
LC: CBM 30 series manufactured by Shimadzu Corporation
Column: Phenomenex Kinetex C18 (50×2.1 mm, 2.6 μm)
Column temperature: 40° C.
Mobile phase A: 0.1% aqueous formic acid solution, mobile phase B: 0.1% formic acid,
50% acetonitrile/methanol mixture
MS: 3200 manufactured by SCIEX

SMILES	inhibition at 0.03 µM (Human VAP-1 enzyme) [%]	inhibition in vivo at 0.3 mg/kg (Rat Plasma VAP-1) [%]	cytotoxicity inhibition ratio [1] [%]	cytotoxicity inhibition ratio [2] [%]	AUC (in vivo) [ng·h/mL]
CC(=O)OC1CC(ON=C2CN(c3ncc(-c4cccc(COC(=O)NC(=N)N)c4F)cn3)C2)C1 (centres unmarked) [Example 133, 3-[({1-[5-(3-{[(Carbamimidoylcarbamoyl)oxy]methyl}-2-fluorophenyl)pyrimidin-2-yl]azetidin-3-ylidene}amino)oxy]cyclobutyl acetate]	≥ 50	≥ 50	≥ 50	≥ 50	–
[2H]C([2H])([2H])ON=C1CN(c2ncc(-c3cccc(COC(=O)NC(=N)N)c3F)cn2)C1 [Example 3, 2-Fluoro-3-(2-{3-[(methoxy-d3)imino]azetidin-1-yl}pyrimidin-5-yl)benzyl carbamimidoylcarbamate]	≥ 50	≥ 50	≥ 50	≥ 50	–
CON=C1CN(c2ncc(-c3cccc(COC(=O)NC(=N)N)c3F)cn2)C1 [Example 1, 2-Fluoro-3-{2-[3-(methoxyimino)azetidin-1-yl]pyrimidin-5-yl}benzyl carbamimidoylcarbamate]	–	≥ 50	≥ 50	≥ 50	≥ 1000
N=C(N)NC(=O)OCc1cccc(-c2cnc(N3CC(=NOC4COC4)C3)nc2)c1F [Example 144, 2-Fluoro-3-(2-{3-[(oxetan-3-yloxy)imino]azetidin-1-yl}pyrimidin-5-yl)benzyl carbamimidoylcarbamate]	≥ 50	≥ 50	≥ 50	≥ 50	–
N=C(N)NC(=O)OCc1cccc(-c2cnc(N3CC(=NOC4CC(O)C4)C3)nc2)c1F (centres unmarked) [Example 134, 2-Fluoro-3-(2-{3-[(3-hydroxycyclobutoxy)imino]azetidin-1-yl}pyrimidin-5-yl)benzyl carbamimidoylcarbamate]	≥ 50	≥ 50	≥ 50	≥ 50	–
